Measured values from patent US6472541B2, “Protecting groups with increased photosensitivities” (The Regents of the University of California, priority 1998, dated 2002).
Marks after values point to notes of the source that are not given here.

What was measured:
[1] = One-photon photolysis quantum efficiency (UV irradiation, HPLC analysis); assay type: physicochemical; conditions: 365 nm
Procedure: (§1) The electronic absorption and emission properties of the compounds were measured and the stability of the compounds toward hydrolysis in the dark was tested. Stability in the dark can be used to help identify photolabile protecting groups that can be used in a variety of different conditions. Specifically, the quantum efficiencies for one-photon excitation and rates of hydrolysis in the dark were determined.
[…] The duration of each irradiation period was controlled by an electronic shutter. Between each irradiation, a small aliquot (10 μL) of the solution was removed for analysis by reversed phase HPLC with a Betabasic-18 column eluted with a isocratic mixture of 60% acetonitrile and water containing 0.1% trifluoracetic acid at a flow rate of 0.8 mL/min, using absorbance detection at 325 nm. […] […] Quantum efficiencies were calculated as (Iσt90%)^−1, where I is the irradiation intensity in einsteins (cm^−2s^−1), σ is the decadic extinction coefficient in cm^2mol^−1 (10^3 times ε, the usual extinction coefficient in M^−1cm^−1), and t90% is the irradiation time in seconds for 90% conversion to product. […] Dark hydrolysis rates were measured similarly except without illumination.

brain slices = assay: Two-photon infrared uncaging on brain slices, whole-cell recordings
Procedure: A map was created where the brightness at each picture element was proportional to the maximum current recorded with the laser focused at that position.
Two-photon infrared uncaging on brain slices was also carried out. […] The stream of pulses from the Ti:sapphire laser was raster-scanned across cell bodies and dendrites.

[2] = Electronic absorption and emission properties; assay type: physicochemical
Procedure: Generally, chemicals and solvents were used directly as received unless otherwise noted. Acetonitrile, chloroform and dichloromethane were dried over 4A molecular sieves. Proton magnetic resonance spectra (^1H NMR) were recorded on a Gemini 200 MHz spectrometer (Varian; Palo Alto, Calif.) and reported in ppm (δ) downfield from tetramethylsilane with residual solvent peaks as the internal standards. Ultraviolet spectra were recorded on a Cary 3E UV-Visible spectrophotometer (Varian, Palo Alto, Calif., USA). Fluorescence spectra were recorded on a Fluorolog spectrofluorometer (SPEX; Edison, N.J., USA). Mass spectra were recorded on a electrospray mass spectrometer (5989B, Hewlett-Packard; Palo Alto, Calif., USA). Thin layer chromatography (TLC) and column chromatography were performed on precoated silica gel 60F-254 plates and 230-400 mesh silica gel 60 respectively (EM Separations; Gibbstown, N.J., USA). All manipulations of compounds sensitive to near ultraviolet light were performed under an orange safety lamp.
as §1

rat cortical neurons = assay: One-photon UV uncaging of caged glutamate on brain slices, neuronal responses; assay type: cell-based; conditions: one-photon UV uncaging at 365 nm, 10 mW, average
Procedure: The photolabile protecting groups can be uncaged by one-photon or two-photon photolysis. One-photon ultraviolet uncaging experiments were carried out on brain slices. In particular, compound 7 was used to deliver glutamate to rat cortical neurons. One-photon UV uncaging of caged glutamate compound at 365 nm released the glutamate. Neuronal responses were measured after directly stimulating cells as described in Sawatari and Callaway, Nature 380:442-446 (1996). The cells were exposed to compound 7 (Bhc-Glu) or γ-(α-carboxy-2-nitrobenzyl)glutamate, trifluoroacetate salt (compound 1, CNB-glutamate). The one-photon uncaging was carried out as described in FIG. 1 depicts the lower power needed to uncage compound 7 (Bhc-Glu) in the neuron sample in comparison to compound 1 (alpha-carboxy nitrobenzyl-caged glutamate, CNB-Glu). At 10 mW the compound 7-stimulated neurons respond, on average, at amplitudes 80% of their maximum, while compound 1-stimulated neurons are responding at less than 20% of their maximum amplitudes.

[3] = In vitro measurements of two-photon uncaging and fluorescence cross-sections; assay type: physicochemical; conditions: measured at 780 nm on an independent apparatus
[4] = Mechanism of photolysis (triplet state lifetime); assay type: physicochemical
From the text: The halogenated coumarin derivatives have good dark stability, and high one-photon and two-photon uncaging efficiencies. Without being bound to any particular theory, halogenation of the coumarin may have increased the two-photon cross-sections by lowering the pKa of the chromophore below physiological pH and promoting formation of the more strongly absorbing anion. Also, the heavy atoms may promote intersystem crossing to the triplet, which is believed to be the photochemically reactive state. […] The mechanism of photolysis of compound 7 and compound 23 indicate that the solvolysis occurs via the triplet state with a lifetime of about 1 μs. […] Although compound 6 had the highest cross-section, its photolysis was complicated by multiple secondary photoproducts. The monobromo compound (compound 5) was much more tractable and easily formed caged compounds.

[5] = In vitro measurements of two-photon uncaging and fluorescence cross-sections; assay type: physicochemical; conditions: pH 7.2
Procedure: Measurements of cross-sections for two-photon uncaging were carried out in microcuvettes with cylindrical cavities having a 1 cm path length and 20 μL total volume (Type 26F, Starna). Femtosecond infrared pulses from a mode-locked titanium-sapphire laser (Spectra-Physics TSUNAMI, pumped by a Spectra-Physics MILLENNIUM) were aimed along the axis of the sample chamber and focused in its center with a 25 mm focal length lens (06LXP003/076, Melles Griot, Irvine, Calif.) optimized for infrared lasers. The pulse parameters were estimated by replacing the caged compound by a solution of fluorescein, a reference compound of known fluorescence quantum yield Qf2 (0.9) and two-photon absorbance cross-section δaF (30 and 38 GM at 740 and 800 nm respectively). The time-averaged fluorescence <F(t)>collected by the detector is given by equation (1)
<F(t)>=0.5φQf2δaFCF<I0^2(t)>∫S^2(r)dV (1)
where φ is the collection efficiency of the detector, CF is the concentration of fluorescein, <I0^2(t)> is the mean squared light intensity, S(r) is a unitless spatial distribution function, and the integral is over the volume of the microcuvette. The fluorescence emitted at right angles to the laser beam was measured through a 535 nm bandpass filter in front of a silicon photodiode radiometer (IL1700, International Light). The collection efficiency φ was estimated as Ay/(4πR^2n^2), where A is the area of the detector (0.38 cm^2), y is the fraction of the integrated emission spectrum transmitted by the interference filter (0.377), measured separately in a spectrofluorometer, R is the distance from the center of the cuvette to the detector (3.83 cm), and n is the refractive index of water (1.333). For photolysis of a caged compound or substrate, the number NP of molecules of product formed per unit time is (eq. 2):
NP=0.5Qu2δaSCS<I0^2(t)>∫S^2(r)dV (2)
where Qu2, δaS, and CS are the quantum efficiency for two-photon uncaging, absorbance cross-section, and concentration of the substrate, respectively. NP was measured by HPLC sampling of the microcuvette as for the one-photon photolysis. The uncaging action cross-section δu2 (≡Qu2δaS) can therefore be estimated by (eq. 3): [formula]
Similarly, when the substrate is also fluorescent, its two-photon fluorescence action cross-section δf2S (≡Qf2SδaS) can be estimated as (eq. 4): [formula]
Here the subscripts S and F distinguish values for the substrate and for the fluorescein reference. If one assumes that one- and two-photon quantum efficiencies are the same, then δu2/Qu1 and δf2S/Qf1S should both equal δaS. In fact, the former values are typically about twice the latter. All of them are directly proportional to the assumed value of Qf2 for fluorescein.

Qu1 Quantum efficiency for uncaging with one-photon excitation at 365 nm [1]: 0.019
εQu1 One-photon action cross section (product of molar absorptivity and photolysis quantum yield) at 365 nm [1]: 329 M⁻¹ cm⁻¹
Entry into the cell (brain slices; photolysis map of neuron): did not enter the cell
Qf1 Quantum efficiency for fluorescence with one-photon excitation [2]: 0.38
λem [2]: 474 nm
ε Molar Absorptivity at 365 nm ([2]; 365 nm): 17,300 M^−1cm^−1
ε Molar Absorptivity at 400 nm ([2]; 400 nm): 5,400 M^−1cm^−1
λmax Wavelength of peak absorbance ([2]; pH 7.2): 368 nm
ε Molar absorptivity at absorbance peak ([2]; pH 7.2, at absorbance peak): 17,470 M^−1cm^−1
δf fluorescence action cross-section for two-photon excitation [3]: 2.2* 10^−50 cm^4s/photon
δu (740 nm) uncaging action cross-section for two-photon excitation ([5]; 740 nm): 0.98 ± 10^−50 cm^4s/photon
δu (800 nm) uncaging action cross-section for two-photon excitation ([5]; 800 nm): 0.37 ± 10^−50 cm^4s/photon
Compound: O=C(O)CC[C@H](NC(=O)OCc1cc(=O)oc2cc(O)c(Br)cc12)C(=O)O [Compound 7, N-(6-Bromo-7-hydroxycoumarin-4-yl)methoxycarbonyl glutamate]
Response to laser scans after application of caged compound (brain slices; Ti:sapphire laser raster-scanned across cell bodies and dendrites): scans evoked inward currents
Change in holding current on application of caged compound (intrinsic agonist activity) (brain slices; whole-cell recordings, 15 cells, before photolysis): did not cause detectable changes in holding current
Neuron response amplitude, percent of maximum amplitude (rat cortical neurons): 80%
Lifetime of triplet state through which solvolysis occurs [4]: about 1 μs
